{"source": "paper PMC9369610", "about": "“Pro-Apoptotic and Pro-Autophagic Properties of Cardenolides from Aerial Parts of Pergularia tomentosa” (Molecules, 2022)", "key": {"Caco-2 cells": {"tested_on": "Caco-2 cells", "experiment": "MTT cell viability assay, IC50 in Caco-2 cells", "assay_type": "cell-based", "settings": "Homo sapiens, 24 h, SE less than 10% of value", "description": "(§1) The human liver hepatocellular carcinoma cell line, HepG2, and the human adenocarcinoma of colon cell line, Caco-2, were cultured in Eagle’s Minimum Essential medium supplemented with 1% (v/v) non-essential amino acids, 0.2 mM L-glutamine, 50 units/mL penicillin, 50 μg/mL streptomycin and 10% (v/v) or 20% (v/v) fetal bovine serum (Sigma Aldrich, Milan, Italy) for HepG2 or Caco-2, respectively. The human embryonal lung fibroblast cell line, MRC5, was cultured in Dulbecco’s Modified Eagle medium (Sigma Aldrich, Milan, Italy) supplemented with 10% (v/v) fetal bovine serum, 0.2 mM L-glutamine, 50 units/mL penicillin and 50 μg/mL streptomycin. HUVEC cells were cultured in endothelial growth medium-2, supplemented with fetal bovine serum (2%), VEGF (0.1%), rH FGF-B (0.4%), rH EGF (0.1%), GA-1000 (0.1%), hydrocortisone (0.04%), R3-IGF-1 (0.1%), heparin (0.1%) and ascorbic acid (0.1%). Cells were maintained at 37 °C in a 5% CO2, 95% air-humidified atmosphere and passaged twice a week. Cell lines were obtained from Interlab Cell Line Collection, Istituto Nazionale per la Ricerca sul Cancro, Genoa, Italy. HUVEC were obtained from Lonza (Milan, Italy).\n(§2) An MTT assay was used to analyse cell viability. Cells were seeded in 96 wells at the density of 2 × 10^4/cm^2 and, after 24 h, they were treated with P. tomentosa compounds or with the vehicle (DMSO). After a further 24 h of treatment, 0.5 mg/mL of MTT was added to the cell medium and incubated for 1.5 h at 37 °C. The resulting formazan crystals were dissolved in 100 μL of DMSO and absorbances were measured at 595 nm and 655 nm. The background signals at 655 nm were subtracted from 595 nm signals, and data were expressed as a percent of cell viability. The concentration of each compound that is required for 50% inhibition in vitro (IC50) was calculated as described in Husseini et al.. IC50 values were obtained for Caco-2, HepG2 and MRC5 cells by performing MTT assays with concentrations ranging from 0.01 μg/mL to 5 μg/mL."}, "HepG2 cells [1]": {"tested_on": "HepG2 cells", "experiment": "MTT cell viability assay, IC50 in HepG2 cells", "assay_type": "cell-based", "settings": "Homo sapiens, 24 h, SE less than 10% of value", "description": "as §1, §2"}, "MRC5 cells": {"tested_on": "MRC5 cells", "experiment": "MTT cell viability assay, IC50 in MRC5 cells", "assay_type": "cell-based", "settings": "Homo sapiens, 24 h, SE less than 10% of value", "description": "as §1, §2"}, "[2]": {"tested_on": "HepG2, Caco-2, MRC5 and HUVEC cells", "experiment": "MTT assay, comparison of cytotoxic effects at 1 μM on four cell types", "assay_type": "cell-based, human", "settings": "24 h, Caco-2, HepG2, MRC5, HUVEC", "source_text": "We focused attention on 12β,6′-dihydroxycalotropin (1), 16α-hydroxycalotropin (2), 12β-hydroxycalactin (3), calotropin (4), and calactin (5), among those described by Hosseini et al., and tested their cytotoxic activity by a 3-(4,5-dime-thylthiazol-2-yl)-2,5-diphenylte-tetrazolium bromide (MTT) assay on two cancer cell lines (HepG2 and Caco-2), not previously employed, on an immortalised nontumoral cell line (MRC5) and normal primary cells (HUVEC).\nFigure 2 Comparison of cytotoxic effects of P. tomentosa compounds on cancer cell lines (Caco-2 and HepG2), on an immortalised cell line (MRC5) and normal cells (HUVEC). Cells were treated for 24 h with 1 μM of each compound. Residual viability was measured by the MTT assay. Values are the means ± standard error (SE) of three independent experiments performed in triplicate. Statistical analysis was performed using the Student’s t-test. * p < 0.05 and ** p < 0.01 vs. cells treated with the vehicle (DMSO).\nas §1, §2"}, "HepG2 cells [3]": {"tested_on": "HepG2 cells", "experiment": "BrdU incorporation (proliferation) assay", "assay_type": "cell-based, human", "settings": "HepG2, 1 μM, 24 h", "description": "Cell proliferation was analysed by a BrdU (Roche Diagnostics SpA, Monza, Italy) incorporation assay, as previously described. Briefly, HepG2 cells, seeded at adensity of 3 × 10^3/cm^2 on round glass cover slips, were treated for 24 h with P. tomentosa compounds at 1 μM. Then, BrdU was added to cell medium (final concentration, 100 μM) for 1 h. Cells were fixed (in 3% paraformaldehyde, 10 min), permeabilised (in 0.2% Triton X-100, 5 min) and treated with HCl 1.5 N (5 min). Finally, cover slips were incubated with a monoclonal antibody against BrdU (Sigma-Aldrich, Milan, Italy), 1:100, and with a TRITC-conjugated secondary antibody, 1:100. After staining with Hoechst, cover slips were mounted with Mowiol (Sigma, Milan, Italy). […] Images were acquired with Axiocam MRc5 and processed with ImageJ Launcher. The number of cells into S-phase was expressed as the ratio between the number of cells incorporating BrdU and the total number of cells."}, "HepG2 cells [4]": {"tested_on": "HepG2 cells", "experiment": "Scratch-wound-healing assay", "assay_type": "cell-based, human", "settings": "HepG2, 1 μM, 24, 48 and 72 h", "description": "Cells were seeded at a density of 5 × 10^4 cells/well in 24-well plates and allowed to grow for 72 h, reaching confluence. Mitomycin C (10 μg/mL) was added to inhibit proliferation, and then a sterile 2–10 μL pipette tip was used to perform a vertical scratch in the monolayer of each well. Detached cells were removed by washing with phosphate-buffered saline. Then, 300 μL of fresh medium containing P. tomentosa compounds (1 μM) or vehicle was added to each well and incubated for 72 h. Images of migrating cells were taken at 0, 24, 48 and 72 h, by using an Olympus CKX41 fluorescent microscope (Olympus Italia srl, Segrate, Italy) and elaborated by the ImageJ software. For each scratch, wound width was calculated as the average distance between the edges in four different sites. Then, reductions in wound wights at 24, 48 and 72 h were expressed as % of the width at time zero."}, "HepG2 cells [5]": {"tested_on": "HepG2 cells", "experiment": "Transwell migration assay", "assay_type": "cell-based, human", "settings": "HepG2, 1 μM, 18 h", "description": "Transwell filters (coated with collagen) in serum-free media containing 0.1% of BSA, with a PET membrane with 8 μm pores (BD Biosciences, Milan, Italy), were rehydrated for 2 h at 37 °C. HepG2 were seeded in the upper chambers at a density of 75 × 10^3 cells in MEM with 0.1% BSA and treated with or without 1 µM of Pergularia compounds. MEM−0.1%BSA, supplemented with 10% FBS, was added to the lower chamber as chemoattractant. Control wells without 10% FBS were included to assess random migration. After incubation at 37 °C in 5% CO2 for 18 h, the migrated cells were fixed with 4% paraformaldehyde for 5 min, permeabilised with methanol for 20 min and stained with crystal violet 0.5% for 15 min at room temperature. The cells on the lower side of the filter were allowed to dry before counting. Eight separate bright-field images were randomly acquired of each filter using an Olympus CKX41 Image Analyzer. The cells in each image were counted and analysed compared to control-transfected cells."}, "HepG2 cells [6]": {"tested_on": "HepG2 cells", "experiment": "TUNEL assay", "assay_type": "cell-based, human", "settings": "HepG2, 1 μM, 24 h", "description": "Microscopic evaluation of apoptosis was performed by a TUNEL assay, using a commercial kit (Fragment End Labelling (FragEL™), […]) DNA Fragmentation Detection Kit, Sigma-Aldrich, Milan, Italy) according to the manufacturer-provided protocol, with some modifications. Briefly, cells were seeded on glass cover slips placed in 24-well plates at a density of 3.5 × 10^3/cm^2 and, after 48 h, they were treated with 1 μΜ of each compound for a further 24 h. Cells were fixed in 3% paraformaldehyde for 10 min, permeabilised in 0.2% Triton X-100 for 5 min and treated with HCl 1.5 N for 8 min. Finally, cover slips were equilibrated in equilibration buffer (10 min) and incubated with label mix containing the TdT enzyme for 1 h at 37 °C, then mounted with mounting media. Microscope observations were performed by the AxioSkop 40 fluorescent microscope. Images were acquired with Axiocam MRc5 (Carl Zeiss MicroImaging, Inc., Jena, Germany)."}, "caspase-3 in HepG2 cells": {"tested_on": "caspase-3 in HepG2 cells", "experiment": "Western blot of cleaved caspase-3", "assay_type": "cell-based, human", "settings": "HepG2, 2 μM, 7 h, Western blot densitometry", "description": "To analyse the protein levels of p53, caspase-3, GRP78, LC3 and p62, HepG2 cells were treated with P. tomentosa compounds (1 or 2 μM) or with DMSO for the indicated times; then, Western blot analyses were performed. Briefly, cells were lysed in RIPA buffer (20 mM Tris-HCl, pH 7.5, 150 mM NaCl, 1 mM EDTA, 1 mM dithiothreitol, 0.1% sodium dodecyl sulphate, 1% triton X-100, 1 mM orthovanadate, and a cocktail of inhibitors (Sigma-Aldrich, Milan, Italy)). After separation on a sodium dodecyl sulphate-polyacrylamide gel electrophoresis and transfer to a poly-vinylidene fluoride membrane (Euroclone, Milan, Italy), the following primary antibodies were used, at a dilution of 1:1000 in tris-buffered saline containing 1% non-fat dry milk, overnight at 4 °C: mouse anti-p53 antibody, mouse anti-MAP LC3 β antibody, mouse anti-p62 antibody (DBA, Milan, Italy), mouse anti-GRP78 antibody, and mouse anti-caspase 3 antibody (Thermo Fisher Scientific, Milan, Italy). For normalisation, a mouse anti-GAPDH antibody (Microtech, Naples, Italy) was used."}, "XBP1 in HepG2 cells": {"tested_on": "XBP1 in HepG2 cells", "experiment": "XBP1 splicing detection", "assay_type": "cell-based, human", "settings": "HepG2, 1 μM, 4 h", "description": "To detect the unspliced and the spliced form of XBP1, we followed the protocol described by Martucciello et al.. After treatments for 4 h with 1 μM of each compound, or DMSO, or thapsigargin (1 μM), RNA was isolated and retro-transcripted. PCR analyses were performed with the following primers: 5′- […]-3′; 5′-[…]-3′. After 35 cycles (heating at 94 °C for 30 s, annealing at 58 °C for 45 s, and polymerisation at 72 °C for 60 s), amplified cDNA was visualised on 2.5% agarose gel, stained with an ethidium bromide solution."}}}
{"molecule": "C[C@@]12C(C3=CC(=O)OC3)CC[C@]1(O)C1CCC3C[C@H]4O[C@@H]5O[C@H](CO)C[C@H](O)[C@]5(O)O[C@@H]4C[C@]3(C=O)C1C[C@H]2O", "note": "(stereo partly drawn) [Compound 1, 12β,6′-dihydroxycalotropin]", "values": [{"measurement": "IC50", "setting": "Caco-2 cells", "result": 1540, "unit": "nM"}, {"measurement": "IC50", "setting": "HepG2 cells [1]", "result": 2610, "unit": "nM"}, {"measurement": "IC50", "setting": "MRC5 cells", "result": 2210, "unit": "nM"}, {"measurement": "relative cytotoxicity (residual viability, MTT)", "setting": "[2]", "result": "intermediate cytotoxicity"}, {"measurement": "effect on BrdU incorporation / cell cycle progression", "setting": "HepG2 cells [3]", "result": "slightly (but not significantly) reduced BrdU incorporation"}, {"measurement": "effect on wound closure", "setting": "HepG2 cells [4]", "result": "interfered with the wound closure after 48 and 72 h"}, {"measurement": "effect on transwell migration", "setting": "HepG2 cells [5]", "result": "reduce migration"}, {"measurement": "apoptotic nuclei (TUNEL)", "setting": "HepG2 cells [6]", "result": "less evident"}]}
{"molecule": "C[C@@H]1C[C@H](O)[C@]2(O)O[C@@H]3C[C@@]4(C=O)C(CCC5C4CC[C@]4(C)C(C6=CC(=O)OC6)[C@H](O)C[C@]54O)C[C@H]3O[C@@H]2O1", "note": "(stereo partly drawn) [Compound 2, 16α-hydroxycalotropin]", "values": [{"measurement": "IC50", "setting": "Caco-2 cells", "result": 2430, "unit": "nM"}, {"measurement": "IC50", "setting": "HepG2 cells [1]", "result": 2340, "unit": "nM"}, {"measurement": "IC50", "setting": "MRC5 cells", "result": 2320, "unit": "nM"}, {"measurement": "relative cytotoxicity (residual viability, MTT)", "setting": "[2]", "result": "intermediate cytotoxicity"}, {"measurement": "effect on BrdU incorporation / cell cycle progression", "setting": "HepG2 cells [3]", "result": "significantly affected cell cycle progression"}, {"measurement": "effect on wound closure", "setting": "HepG2 cells [4]", "result": "interfered with the wound closure at 72 h only"}, {"measurement": "apoptotic nuclei (TUNEL)", "setting": "HepG2 cells [6]", "result": "less evident"}]}
{"molecule": "C[C@@H]1C[C@H](O)[C@]2(O)O[C@@H]3C[C@@]4(C=O)[C@@H](CC[C@@H]5[C@@H]4CC[C@]4(C)[C@@H](C6=CC(=O)OC6)CC[C@]54O)C[C@H]3O[C@@H]2O1", "note": "[Compound 4, calotropin]", "values": [{"measurement": "IC50", "setting": "Caco-2 cells", "result": 767, "unit": "nM"}, {"measurement": "IC50", "setting": "HepG2 cells [1]", "result": 830, "unit": "nM"}, {"measurement": "IC50", "setting": "MRC5 cells", "result": 424, "unit": "nM"}, {"measurement": "relative cytotoxicity (residual viability, MTT)", "setting": "[2]", "result": "most cytotoxic"}, {"measurement": "effect on BrdU incorporation / cell cycle progression", "setting": "HepG2 cells [3]", "result": "significantly affected cell cycle progression"}, {"measurement": "reduction of number of cells that incorporated BrdU compared to the vehicle", "setting": "HepG2 cells [3]", "result": "about 40%"}, {"measurement": "effect on wound closure", "setting": "HepG2 cells [4]", "result": "not affect cell migration, at any time"}, {"measurement": "cleaved caspase-3 (caspase-3 activation)", "setting": "caspase-3 in HepG2 cells", "result": "most active"}, {"measurement": "apoptotic nuclei (TUNEL)", "setting": "HepG2 cells [6]", "result": "occurrence of apoptotic nuclei"}]}
{"molecule": "C/C=C(/C)C(=O)O[C@H]1C(C)=C2[C@H]([C@@H]1OC(=O)CCCCCCC)[C@@](C)(OC(C)=O)C[C@H](OC(=O)CCC)[C@@]1(O)[C@H]2OC(=O)[C@@]1(C)O", "note": "[thapsigargin]", "values": [{"measurement": "XBP1 splicing", "setting": "XBP1 in HepG2 cells", "result": "appearance of the spliced form"}]}
